Reference: PubChem BioAssay AID328 (DTP/NCI, 2004)
Values joined by “and” are separate entries in the source; they are usually repeats but may differ in a detail not shown here. Equal values may be shown once. Inconclusive results and toxic doses are left out. Residues, ends and D or L forms follow the SMILES beside them. *: point of attachment. Bn = c1ccc(C*)cc1

Test system: BDF1 mice, P388 leukemia ip, median survival T/C
Test: NCI In Vivo Anticancer Drug Screen. Data for tumor model P388 Leukemia (intraperitoneal) in B6D2F1 (BDF1) mice
Details: endpoint: median survival time, higher = longer survival
How it was run: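 Transplantable tumour in mice; compound vs vehicle dosing; survival scored; ratio of treated to control reported.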

[1] = dose: 100.0 mg/kg/injection, schedule: Q01DX001 (ip), vehicle: saline with Tween-80
[2] = dose: 200.0 mg/kg/injection, schedule: Q01DX001 (ip), vehicle: saline with Tween-80
[3] = dose: 100.0 mg/kg/injection, schedule: Q04DX003 (ip), vehicle: Klucel (hydroxypropylcellulose) (HPC)
[4] = dose: 200.0 mg/kg/injection, schedule: Q04DX003 (ip), vehicle: Klucel (hydroxypropylcellulose) (HPC)
[5] = dose: 400.0 mg/kg/injection, schedule: Q04DX003 (ip), vehicle: Klucel (hydroxypropylcellulose) (HPC)
[6] = dose: 25.0 mg/kg/injection, schedule: Q01DX009 (ip), vehicle: saline with Tween-80
[7] = dose: 50.0 mg/kg/injection, schedule: Q01DX009 (ip), vehicle: saline with Tween-80
[8] = dose: 6.25 mg/kg/injection, schedule: Q01DX009 (ip), vehicle: saline
[9] = dose: 12.5 mg/kg/injection, schedule: Q01DX009 (ip), vehicle: saline
[10] = dose: 50.0 mg/kg/injection, schedule: Q04DX003 (ip), vehicle: saline
[11] = dose: 100.0 mg/kg/injection, schedule: Q04DX003 (ip), vehicle: saline
[12] = dose: 12.5 mg/kg/injection, schedule: Q01DX009 (ip), vehicle: saline with Tween-80
[13] = dose: 50.0 mg/kg/injection, schedule: Q04DX003 (ip), vehicle: saline with Tween-80
[14] = dose: 100.0 mg/kg/injection, schedule: Q01DX009 (ip), vehicle: saline with Tween-80
[15] = dose: 100.0 mg/kg/injection, schedule: Q04DX003 (ip), vehicle: saline with Tween-80
[16] = dose: 200.0 mg/kg/injection, schedule: Q01DX009 (ip), vehicle: saline with Tween-80
[17] = dose: 400.0 mg/kg/injection, schedule: Q01DX009 (ip), vehicle: saline with Tween-80
[18] = dose: 25.0 mg/kg/injection, schedule: Q04DX003 (ip), vehicle: saline with Tween-80
[19] = dose: 1.56 mg/kg/injection, schedule: Q01DX009 (ip), vehicle: saline
[20] = dose: 3.12 mg/kg/injection, schedule: Q01DX009 (ip), vehicle: saline

Nc1ncnc2nc(-c3ccc(Br)cc3)[nH]c12
T/C [1]: 94 % of control
T/C [2]: 106 % of control

CCCCCCCCC(O)CCCC (stereo not given)
T/C [3]: 91 % of control
T/C [4]: 91 % of control
T/C [5]: 100 % of control

COC(=O)C(F)C(Br)C(=O)OC (stereo not given)
T/C [6]: 113 % of control
T/C [7]: 115 % of control

NNC(=O)C1CC1
T/C [8]: 96 % of control
T/C [9]: 107 % of control
T/C (dose: 25.0 mg/kg/injection, schedule: Q01DX009 (ip), vehicle: saline): 100 % of control
T/C (dose: 25.0 mg/kg/injection, schedule: Q04DX003 (ip), vehicle: saline): 100 % of control
T/C (dose: 50.0 mg/kg/injection, schedule: Q01DX009 (ip), vehicle: saline): 100 % of control
T/C [10]: 100 % of control
T/C [11]: 104 % of control

COC(=O)C(CC(C)C)NC(=O)C(N)Cc1ccc(OCc2ccccc2)cc1 (stereo not given) (H-Tyr(Bn)-Leu-OMe; configuration not given here)
T/C [12]: 105 % of control
T/C [6]: 100 % of control
T/C [7]: 105 % of control and 120 % of control
T/C [13]: 105 % of control
T/C [14]: 105 % of control
T/C [15]: 100 % of control

COc1ccc(NC(=S)N(C)C)cc1
T/C [14]: 100 % of control
T/C [16]: 109 % of control
T/C [17]: 109 % of control

C/C(=C\c1ccccc1)C(C)(C)C(=O)O
T/C [7]: 102 % of control
T/C [14]: 96 % of control
T/C [16]: 99 % of control

c1ccc(-c2[nH]c3ccccc3c2-c2ccccc2)cc1
T/C (dose: 100.0 mg/kg/injection, schedule: Q01DX001 (ip), vehicle: Klucel (hydroxypropylcellulose) (HPC)): 109 % of control
T/C (dose: 200.0 mg/kg/injection, schedule: Q01DX001 (ip), vehicle: Klucel (hydroxypropylcellulose) (HPC)): 113 % of control
T/C (dose: 400.0 mg/kg/injection, schedule: Q01DX001 (ip), vehicle: Klucel (hydroxypropylcellulose) (HPC)): 122 % of control

CCOC(=O)/C(C#N)=C\C=C\c1ccccc1
T/C [3]: 86 % of control
T/C [4]: 90 % of control
T/C [5]: 90 % of control

CCC(CN(C)C)C(=O)c1ccccc1 (stereo not given)
T/C [18]: 100 % of control
T/C [13]: 95 % of control
T/C [1]: 100 % of control
T/C [15]: 91 % of control and 95 % of control
T/C [2]: 100 % of control

Nc1nc(=S)c2[nH]c(N=Nc3ccc(S(N)(=O)=O)cc3)nc2[nH]1
T/C (dose: 12.5 mg/kg/injection, schedule: Q04DX003 (ip), vehicle: Klucel (hydroxypropylcellulose) (HPC)): 166 % of control
T/C (dose: 25.0 mg/kg/injection, schedule: Q04DX003 (ip), vehicle: Klucel (hydroxypropylcellulose) (HPC)): 156 % of control

CN(C)c1ccc(-c2nc3c(=O)n(C)c(=O)n(C)c3nc2-c2ccc(N(C)C)cc2)cc1
T/C (dose: 100.0 mg/kg/injection, schedule: Q04DX002 (ip), vehicle: saline with Tween-80): 106 % of control
T/C (dose: 200.0 mg/kg/injection, schedule: Q04DX002 (ip), vehicle: saline with Tween-80): 111 % of control
T/C (dose: 400.0 mg/kg/injection, schedule: Q04DX002 (ip), vehicle: saline with Tween-80): 116 % of control

Clc1cccc(NC2=NCCN=C(Nc3cccc(Cl)c3)SS2)c1
T/C [7]: 111 % of control
T/C [14]: 102 % of control
T/C [16]: 111 % of control

OC1CC[N-]CC1.OC1CC[N-]CC1.[Cl][Pt+2]([Cl])([Cl])[Cl]
T/C [18]: 109 % of control
T/C [13]: 102 % of control

CCCCCCCCC(=O)c1c(OC)oc(/C=N/O)cc1=O
T/C (dose: 1.56 mg/kg/injection, schedule: Q01DX009 (ip), vehicle: Klucel (hydroxypropylcellulose) (HPC)): 94 % of control
T/C (dose: 3.13 mg/kg/injection, schedule: Q01DX009 (ip), vehicle: Klucel (hydroxypropylcellulose) (HPC)): 107 % of control
T/C (dose: 6.25 mg/kg/injection, schedule: Q01DX009 (ip), vehicle: Klucel (hydroxypropylcellulose) (HPC)): 97 % of control

COc1cc2c(cc1OC)C1c3cc(OC)c(OC)cc3CC(=O)N1CC2 (stereo not given)
T/C (dose: 0.09 mg/kg/injection, schedule: Q01DX009 (ip), vehicle: saline): 110 % of control
T/C (dose: 0.39 mg/kg/injection, schedule: Q01DX009 (ip), vehicle: saline): 88 % of control
T/C (dose: 0.78 mg/kg/injection, schedule: Q01DX009 (ip), vehicle: saline): 98 % of control
T/C [19]: 99 % of control
T/C [20]: 100 % of control
T/C [9]: 108 % of control
T/C [10]: 102 % of control
T/C (dose: 100.0 mg/kg/injection, schedule: Q01DX009 (ip), vehicle: saline): 92 % of control
T/C [11]: 99 % of control
T/C (dose: 200.0 mg/kg/injection, schedule: Q04DX003 (ip), vehicle: saline): 102 % of control
T/C (dose: 400.0 mg/kg/injection, schedule: Q04DX003 (ip), vehicle: saline): 93 % of control

C[N+](C)=C1C=CC(=C2C=CSC=C2)C=C1
T/C [19]: 117 % of control
T/C [20]: 124 % of control
T/C [8]: 123 % of control
T/C [9]: 100 % of control

COC(=O)c1ccccc1NC(=O)C(Cl)Cl
T/C (dose: 75.0 mg/kg/injection, schedule: Q04DX003 (ip), vehicle: olive oil, sesame oil, peanut oil): 95 % of control
T/C (dose: 100.0 mg/kg/injection, schedule: Q01DX001 (ip), vehicle: olive oil, sesame oil, peanut oil): 95 % of control
T/C (dose: 150.0 mg/kg/injection, schedule: Q04DX003 (ip), vehicle: olive oil, sesame oil, peanut oil): 95 % of control
T/C (dose: 200.0 mg/kg/injection, schedule: Q01DX001 (ip), vehicle: olive oil, sesame oil, peanut oil): 90 % of control
T/C (dose: 300.0 mg/kg/injection, schedule: Q04DX003 (ip), vehicle: olive oil, sesame oil, peanut oil): 100 % of control
T/C (dose: 400.0 mg/kg/injection, schedule: Q01DX001 (ip), vehicle: olive oil, sesame oil, peanut oil): 100 % of control

O=C(OCC#CC#CCOC(=O)c1cccc2ccccc12)c1cccc2ccccc12
T/C (dose: 100.0 mg/kg/injection, schedule: Q01DX009 (ip), vehicle: Klucel (hydroxypropylcellulose) (HPC)): 100 % of control
T/C (dose: 200.0 mg/kg/injection, schedule: Q01DX009 (ip), vehicle: Klucel (hydroxypropylcellulose) (HPC)): 95 % of control
T/C (dose: 400.0 mg/kg/injection, schedule: Q01DX009 (ip), vehicle: Klucel (hydroxypropylcellulose) (HPC)): 105 % of control

CC(C)OC(=S)SSc1nc2ccccc2s1
T/C (dose: 9.37 mg/kg/injection, schedule: Q01DX009 (ip), vehicle: saline): 115 % of control
T/C (dose: 18.75 mg/kg/injection, schedule: Q01DX009 (ip), vehicle: saline): 110 % of control
T/C (dose: 75.0 mg/kg/injection, schedule: Q01DX009 (ip), vehicle: saline with Tween-80): 112 % of control

C/C(=N\N1CCCCCC1)c1ccccc1
T/C (dose: 50.0 mg/kg/injection, schedule: Q04DX003 (sc), vehicle: olive oil, sesame oil, peanut oil): 95 % of control
T/C (dose: 100.0 mg/kg/injection, schedule: Q04DX003 (sc), vehicle: olive oil, sesame oil, peanut oil): 95 % of control
T/C (dose: 200.0 mg/kg/injection, schedule: Q04DX003 (sc), vehicle: olive oil, sesame oil, peanut oil): 91 % of control

c1cc2c(c(NC3=NCCCO3)c1)CCCC2
T/C [12]: 100 % of control
T/C [6]: 110 % of control
T/C [7]: 105 % of control

CC(C(=O)c1ccccc1)C(Cl)c1ccccc1 (stereo not given)
T/C [7]: 95 % of control
T/C [14]: 94 % of control
T/C [15]: 89 % of control
T/C [16]: 86 % of control
T/C (dose: 200.0 mg/kg/injection, schedule: Q04DX003 (ip), vehicle: saline with Tween-80): 89 % of control
T/C [17]: 86 % of control
T/C (dose: 400.0 mg/kg/injection, schedule: Q04DX003 (ip), vehicle: saline with Tween-80): 98 % of control
